{
  "source": "patent US9267122B2",
  "about": "“Modulation of phospholipase D for the treatment of neurodegenerative disorders” (THE TRUSTEES OF COLUMBIA UNIVERSITY IN THE CITY OF NEW YORK, priority 2009, dated 2016)",
  "key": {"primary cortical neurons": {"test_system": "primary cortical neurons", "experiment": "Rescue of oAβ42-induced decrease in PIP2 levels in primary cortical neuronal cultures", "format": "cell-based, mice", "details": "750 nM FIPI pretreatment for 1 hour, then 200 nM oAβ42 for 2 hours; n=3"}, "[1]": {"test_system": "N2a cells expressing swAPP", "experiment": "Aβ secretion by N2a cells expressing swAPP (ELISA)", "format": "cell-based", "description": "N2a cells expressing swAPP after reaching confluence, were replaced with new media and treated either with vehicle (black) or FIPI (gray) for 6 hours. The media was collected and both Aβ40 (A) and Aβ42 (B) were measured by ELISA. n=6."}, "PLD1": {"target": "T1, PLD1 (Homo sapiens, UniProt Q13393)", "T1 sequence (Q13393 1-1074)": "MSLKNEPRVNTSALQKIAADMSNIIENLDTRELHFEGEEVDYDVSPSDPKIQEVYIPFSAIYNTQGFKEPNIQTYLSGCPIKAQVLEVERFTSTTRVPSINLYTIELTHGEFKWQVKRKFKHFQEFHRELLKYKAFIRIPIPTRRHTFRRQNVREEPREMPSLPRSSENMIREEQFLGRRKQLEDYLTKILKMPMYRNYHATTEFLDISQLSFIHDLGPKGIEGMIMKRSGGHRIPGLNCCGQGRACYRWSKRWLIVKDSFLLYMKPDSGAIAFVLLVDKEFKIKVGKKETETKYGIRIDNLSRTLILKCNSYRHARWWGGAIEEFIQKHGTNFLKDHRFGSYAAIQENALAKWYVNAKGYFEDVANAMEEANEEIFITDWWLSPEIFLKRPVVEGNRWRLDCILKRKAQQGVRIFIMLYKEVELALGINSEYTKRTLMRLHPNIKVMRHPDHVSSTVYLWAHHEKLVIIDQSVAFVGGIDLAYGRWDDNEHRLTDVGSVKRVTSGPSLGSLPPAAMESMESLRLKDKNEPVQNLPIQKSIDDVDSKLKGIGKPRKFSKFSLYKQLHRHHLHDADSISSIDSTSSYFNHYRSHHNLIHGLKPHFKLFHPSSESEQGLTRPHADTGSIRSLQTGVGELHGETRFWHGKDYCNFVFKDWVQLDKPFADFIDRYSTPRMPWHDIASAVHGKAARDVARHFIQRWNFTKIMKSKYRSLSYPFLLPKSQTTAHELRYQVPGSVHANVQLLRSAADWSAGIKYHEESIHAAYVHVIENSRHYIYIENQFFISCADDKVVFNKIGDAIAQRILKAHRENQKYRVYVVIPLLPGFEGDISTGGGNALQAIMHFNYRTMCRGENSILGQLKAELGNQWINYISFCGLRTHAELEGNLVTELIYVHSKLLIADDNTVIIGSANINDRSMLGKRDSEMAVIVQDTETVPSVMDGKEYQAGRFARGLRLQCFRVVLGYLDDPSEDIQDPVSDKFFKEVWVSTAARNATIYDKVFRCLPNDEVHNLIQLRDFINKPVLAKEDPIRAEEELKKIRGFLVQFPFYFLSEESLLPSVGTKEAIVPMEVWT", "details": "PLD1 versus PLD2; cited from earlier work"}, "293-PLD2": {"test_system": "293-PLD2", "details": "cited from earlier work"}, "Calu-1": {"test_system": "Calu-1", "details": "cited from earlier work"}},
  "note": "Entries after “also recorded” stand apart in the source; their conditions may differ.",
  "data": [
    {"compound": "O=C(NCCN1CCC(n2c(=O)[nH]c3ccccc32)CC1)c1cc2cc(F)ccc2[nH]1", "note": "[FIPI, 5-Fluoro-2-indolyl des-chlorohalopemide]", "values": [
      {"measurement": "PIP2 levels after oAβ42", "setting": "primary cortical neurons", "value": "partially rescues oAβ42 induced decrease in PIP2 levels; also recorded: partially rescue PIP2 deficiency"},
      {"measurement": "secreted Aβ42", "setting": "[1]; N2A cells expressing swAPP treated with FIPI, 6 hours, ELISA of media", "value": "secrete lower amounts of Aβ42"},
      {"measurement": "production of Aβ (Aβ40 and Aβ42)", "setting": "[1]; N2a swAPP cells, FIPI versus vehicle for 6 hours, ELISA, n=6", "value": "decrease production of Aβ"},
      {"measurement": "PLD isoform selectivity", "setting": "PLD1", "value": "blocks both PLD1 and PLD2"}
    ]},
    {"compound": "O=C(NCCN1CCC2(CC1)C(=O)NCN2c1ccccc1)c1cnc2ccccc2c1", "note": "[compound 9b, N-(2-(4-oxo-1-phenyl-1,3,8-triazaspiro[4,5]decan-8-yl)ethyl)quinoline-3-carboxamide]", "values": [
      {"measurement": "IC50", "setting": "293-PLD2", "value": 90, "unit": "nM"},
      {"measurement": "IC50", "setting": "Calu-1", "value": 1900, "unit": "nM"}
    ]},
    {"compound": "C[C@@H](CN1CCC(n2c(=O)[nH]c3cc(Br)ccc32)CC1)NC(=O)[C@@H]1C[C@H]1c1ccccc1", "note": "[compound 13r, (1R,2R)—N—((S)-1-(4-(5-bromo-2-oxo-2,3-dihydro-1H-benzo[d]imidazol-1-yl)piperidin-1-yl)propan-2-yl)-2-phenylcyclopropanecarboxamide]", "values": [
      {"measurement": "IC50", "setting": "Calu-1", "value": 3.7, "unit": "nM"}
    ]}
  ]
}
